The source of these data is PMC10065799, “High-throughput profiling of sequence recognition by tyrosine kinases and SH2 domains using bacterial peptide display” (eLife, 2023).

Test [1] concerns the target T1, c-Src kinase domain (Homo sapiens, UniProt P12931). The experiment in a line: pTyr-Var library bacterial peptide display kinase screen (enrichment scores). The format is biochemical.
The target of test [2] is T1, c-Src kinase domain. The experiment in a line: RP-HPLC assay to measure peptide phosphorylation kinetics. In kind it is biochemical. The settings on record: purified peptide substrate.
The target in another test is T2, c-Abl kinase domain (Mus musculus, UniProt P00520).
T2 sequence (P00520 242-493 limits assumed): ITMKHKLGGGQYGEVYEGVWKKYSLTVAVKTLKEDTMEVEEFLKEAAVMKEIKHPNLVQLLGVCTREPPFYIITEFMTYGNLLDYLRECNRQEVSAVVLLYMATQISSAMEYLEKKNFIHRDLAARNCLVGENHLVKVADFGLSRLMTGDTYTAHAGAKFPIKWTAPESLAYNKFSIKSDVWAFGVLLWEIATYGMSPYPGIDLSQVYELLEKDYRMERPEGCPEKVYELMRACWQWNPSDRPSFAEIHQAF
The experiment in a line: pTyr-Var library bacterial peptide display kinase screen (enrichment scores). The format is biochemical.

A further test has as its system EPHB2 kinase domain. The description is as above. The format is biochemical, human.
For another test, the system named is FGFR1 kinase domain. The test is described as above. In kind it is biochemical, human.
Another test concerns the target c-Src SH2 domain (Homo sapiens, UniProt P12931). The experiment in a line: pTyr-Var library SH2 domain screen with SH2-dynabeads (enrichment scores). Conditions: sheet c-Src.
In the next test the test system is Fes. The experiment in a line: pTyr-Var library bacterial peptide display kinase screen (enrichment scores). In kind it is biochemical. Conditions: mean of log2 of enrichment over R1-R6.
The test system of a further test is FGFR3 kinase domain. The test is described as above. In kind it is biochemical, human.
In test [3] the test system is 4G10 Platinum pan-phosphotyrosine antibody. The experiment in a line: Phosphorylated pTyr-Var library selection with biotinylated pan-phosphotyrosine antibody. The format is binding, mouse. Conditions: enrichment score, sheet SH2-vs-peptide.
In the next test the test system is Grb2 SH2 domain. The experiment in a line: pTyr-Var library SH2 domain screen with SH2-dynabeads (enrichment scores).
For the next test, the system named is Fer kinase domain. The experiment in a line: pTyr-Var library bacterial peptide display kinase screen (enrichment scores). In kind it is biochemical, mouse.
For a further test, the system named is SHP2 C-SH2 domain. The experiment in a line: pTyr-Var library SH2 domain screen with SH2-dynabeads (enrichment scores).
The subject of another test is AncSZ kinase domain. The experiment in a line: pTyr-Var library bacterial peptide display kinase screen (enrichment scores). In kind it is biochemical.
A further test has as its system Fyn kinase domain. The description is as above. The format is biochemical, human.
The test system of another test is Jak2. The test is described as above. The format is biochemical, human.
In the next test the test system is Hck kinase domain. The description is as above. In kind it is biochemical, human.
In the next test the test system is MERTK kinase domain. The description is as above. In kind it is biochemical, human.
For a further test, the system named is EPHB1 kinase domain. The description is as above. In kind it is biochemical, human.
Test [4] deals with human c-Src kinase domain (residues 260-528) (human) (UniProt P12931).
[5] abbreviates: mean of log2 of enrichment over R1-R4.
[6] abbreviates: pTyr-Var library, enrichment score, replicate 1.
Where [7] appears, read: pTyr-Var library, enrichment score, replicate 3.
Where [8] appears, read: pTyr-Var library, enrichment score, replicate 4.
[9] abbreviates: mean of log2 enrichment of reference peptide, n = 4.
[10] abbreviates: pTyr-Var library, reference peptide enrichment, mean of n = 4.
Where [11] appears, read: mean of log2 enrichment of reference peptide, n = 5.
The mark [12] stands for this setting: pTyr-Var library, reference peptide enrichment, mean of n = 5.
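For screen in this document: log2 fold change in enrichment of variant over reference.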

“Ac-SGDINYGQFAQ-NH2 [PLCG1_Y210_T209N, pTyr-Var library variant phosphosite peptide]” registered a Screen on c-Src kinase domain [1] (sheet "Src", variant peptide versus its reference peptide in the pTyr-Var library screen) of -3.177. Besides, at c-Src kinase domain [2], the “Phosphorylation Rate” value turned out to be 0.307 s⁻¹.

Regarding DRVALYIAREG [AACS_Y117], the “c-Abl mean of log2(enrichment)” value on c-Abl kinase domain (setting [5]) is listed as -0.4566. Besides, the “c-Abl enrich. R1” value at c-Abl kinase domain (setting [6]) amounted to 0.7622. The “c-Abl enrich. R3” value on c-Abl kinase domain (setting [7]) is listed as 0.701. For the same molecule, the “c-Abl enrich. R4” value on c-Abl kinase domain (setting [8]) turned out to be 0.6553. The “mean of log2(reference)” value is recorded as -0.9971 in the test on EPHB2 kinase domain (setting [9]); -0.9619 in the test on FGFR1 kinase domain (setting [11]); -1.13 at c-Src SH2 domain (mean of log2 enrichment of reference peptide, R1-R3); -0.5381 in the test on FGFR3 kinase domain (setting [11]); -0.1768 in the test with Grb2 SH2 domain (Grb2 SH2, mean of log2 enrichment of reference, R1-R3); -0.1513 in the test on SHP2 C-SH2 domain (SHP2-C SH2, mean of log2 enrichment of reference, R1-R3). In addition, the “mean of log2(reference)” value is reported as -1.387 with MERTK kinase domain (setting [9]) and -0.6213 in the test with EPHB1 kinase domain (setting [9]). The ref. mean in the test with EPHB2 kinase domain (setting [10]) is 0.5335; in the test with FGFR1 kinase domain (setting [12]), 0.5188; on c-Src SH2 domain (reference peptide, mean of R1-R3) it was 0.4875; in the test on FGFR3 kinase domain (setting [12]), 0.7165; in the test with Grb2 SH2 domain (reference peptide enrichment score, Grb2 SH2, mean of R1-R3) it was 0.8958; with SHP2 C-SH2 domain (reference peptide enrichment score, SHP2-C SH2, mean of R1-R3), 0.928. Further, the ref. mean with MERTK kinase domain (setting [10]) turned out to be 0.3952; with EPHB1 kinase domain (setting [10]) it was 0.6707. In addition, the “Fes mean of log2(enrichment)” value in the test on Fes turned out to be 0.1816. Besides, the “4G10 (mean)” value in test [3] worked out at 0.8696. Also, the “Fer mean of log2(enrichment)” value in the test with Fer kinase domain (setting [5]) is listed as -1.082. For the same molecule, in the test with Fer kinase domain (setting [6]), the “Fer enrich. R1” value turned out to be 0.5665. The “Fer enrich. R3” value in the test with Fer kinase domain (setting [7]) stood at 0.4786. Besides, the “Fer enrich. R4” value with Fer kinase domain (setting [8]) came to 0.5652. Moreover, the “c-Src mean of log2(enrichment)” value on c-Src kinase domain [1] (setting [5]) is reported as -1.224. The “c-Src enrich. R1” value on c-Src kinase domain [1] (setting [6]) is reported as 0.458. In addition, the “c-Src enrich. R3” value at c-Src kinase domain [1] (setting [7]) came out at 0.3437. The “c-Src enrich. R4” value on c-Src kinase domain [1] (setting [8]) stood at 0.4348. In addition, in the test on AncSZ kinase domain (mean of log2 of enrichment over R1-R5), the “AncSZ mean of log2(enrichment)” value is -0.07806. Moreover, in the test with AncSZ kinase domain (setting [6]), the “AncSZ enrich. R1” value was determined as 1.096. The “AncSZ enrich. R3” value in the test on AncSZ kinase domain (setting [7]) turned out to be 1.043. For the same molecule, the “AncSZ enrich. R4” value with AncSZ kinase domain (setting [8]) came to 0.9321. The “AncSZ enrich. R5” value in the test with AncSZ kinase domain (pTyr-Var library, enrichment score, replicate 5) was 0.7233. Also, in the test with Fyn kinase domain (setting [5]), the “Fyn mean of log2(enrichment)” value is -1.315. In addition, the “Fyn enrich. R1” value in the test on Fyn kinase domain (setting [6]) is 0.792. In addition, the “Fyn enrich. R3” value in the test with Fyn kinase domain (setting [7]) is 0.3214. In the test with Fyn kinase domain (setting [8]), the “Fyn enrich. R4” value came out at 0.1749. The “Jak2 mean of log2(enrichment)” value in the test on Jak2 (mean of log2 of enrichment over R1-R3) is on record as 0.02155. Also, the “Jak2 enrich. R1” value in the test with Jak2 (setting [6]) was determined as 0.9714. For the same molecule, the “Jak2 enrich. R3” value in the test with Jak2 (setting [7]) is recorded as 1.09. In addition, in the test on Hck kinase domain (mean of log2(variant) / mean of log2(reference), R1-R4), the “Hck mean of log2(enrichment)” value turned out to be 0.5689. Besides, the “Hck enrich. R1” value in the test with Hck kinase domain (setting [6]) is recorded as 0.9245. Also, in the test on Hck kinase domain (setting [7]), the “Hck enrich. R3” value turned out to be 0.4813. Besides, the “Hck enrich. R4” value in the test on Hck kinase domain (setting [8]) is given as 0.2133.

With Ac-GPDEPIYEWWWIKKKG-NH2 [Fer Consensus peptide Ac-…-NH2], in test [4], the KM (μM) of phosphorylation, Michaelis-Menten analysis, ADP-Quest assay was determined as 8 µM.
